Reference: US12209087B2, “AKT1 modulators” (Alterome Therapeutics, Inc., priority 2022, dated 2025)
pIC50: −log10 of the molar value.

molecular target: T1, full length AKT E17K (Homo sapiens, UniProt P31749, E17K); test: NanoBRET Target Engagement (TE) Assay; type: cell-based; conditions: competitive displacement of tracer in cells, read-out: AKT1 E17K IC50
T1 construct: host or cells: HEK-293 (ATCC CRL-1573)
Outline: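 Compound and tracer incubated 2 h before luminescence at donor 450 nm and acceptor 600 nm, with extracellular signal inhibited. EC50 by sigmoidal variable-slope regression.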

T1 sequence (P31749 whole entry E17K): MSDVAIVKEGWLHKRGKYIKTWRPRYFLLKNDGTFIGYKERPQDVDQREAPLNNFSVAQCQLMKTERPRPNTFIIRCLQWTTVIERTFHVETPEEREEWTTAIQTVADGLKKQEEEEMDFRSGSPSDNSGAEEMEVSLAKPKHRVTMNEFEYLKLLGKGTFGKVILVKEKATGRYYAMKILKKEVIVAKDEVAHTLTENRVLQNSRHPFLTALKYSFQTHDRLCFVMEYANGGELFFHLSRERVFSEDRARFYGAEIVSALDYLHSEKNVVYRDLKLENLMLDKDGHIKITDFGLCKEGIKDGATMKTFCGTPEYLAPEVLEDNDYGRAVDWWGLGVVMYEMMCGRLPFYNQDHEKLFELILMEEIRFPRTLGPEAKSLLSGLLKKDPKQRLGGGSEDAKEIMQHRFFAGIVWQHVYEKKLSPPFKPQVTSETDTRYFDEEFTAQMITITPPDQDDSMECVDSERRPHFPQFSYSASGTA

Row | SMILES | pIC50
1 | N#Cc1nccc(NC2CCN(Cc3ccc(-n4c(-c5cccnc5N)nc5ccc(-c6cnn(C(F)F)n6)nc54)cc3)CC2)n1 [Example 620, 4-((1-(4-(2-(2-Aminopyridin-3-yl)-5-(2-(difluoromethyl)-2H-1,2,3-triazol-4-yl)-3H-imidazo[4,5-b]pyridin-3-yl)benzyl)piperidin-4-yl)amino)pyrimidine-2-carbonitrile] | > 7.82
2 | N#Cc1ccnc(NC2CCN(Cc3ccc(-n4c(-c5cccnc5N)nc5ccc(N6CCCNC(=O)C6)nc54)cc3)CC2)n1 [Example 347, 2-((1-(4-(2-(2-Aminopyridin-3-yl)-5-(3-oxo-1,4-diazepan-1-yl)-3H-imidazo[4,5-b]pyridin-3-yl)benzyl)piperidin-4-yl)amino)pyrimidine-4-carbonitrile] | 6.22 to 7.22
3 | N#Cc1nccc(NC2CCN(Cc3ccc(-n4c(-c5cccnc5N)nc5ccc(-c6ccc(F)cc6)nc54)cc3)CC2)n1 [Example 370, 4-((1-(4-(2-(2-Aminopyridin-3-yl)-5-(4-fluorophenyl)-3H-imidazo[4,5-b]pyridin-3-yl)benzyl)piperidin-4-yl)amino)pyrimidine-2-carbonitrile] | > 7.82
4 | N#Cc1nccc(NC2CCN(Cc3ccc(-n4c(-c5cccnc5N)nc5ccc(-c6ccc(CF)cn6)nc54)cc3)CC2)n1 [Example 648, 4-((1-(4-(2-(2-Aminopyridin-3-yl)-5-(5-(fluoromethyl)pyridin-2-yl)-3H-imidazo[4,5-b]pyridin-3-yl)benzyl)piperidin-4-yl)amino)pyrimidine-2-carbonitrile] | > 7.82
5 | N#Cc1nccc(NC2CCN(Cc3ccc(-n4c(-c5c(F)ccnc5N)nc5ccc(-c6ccc(F)cn6)nc54)cc3)CC2)n1 [Example 600, 4-((1-(4-(2-(2-Amino-4-fluoropyridin-3-yl)-5-(5-fluoropyridin-2-yl)-3H-imidazo[4,5-b]pyridin-3-yl)benzyl)piperidin-4-yl)amino)pyrimidine-2-carbonitrile] | 7.22 to 7.82
6 | N#Cc1nccc(N2CCN(Cc3ccc(-n4c(-c5cccnc5N)nc5ccc(-c6ccc(=O)[nH]c6)nc54)cc3)CC2)n1 [Example 332, 4-(4-(4-(2-(2-Aminopyridin-3-yl)-5-(6-oxo-1,6-dihydropyridin-3-yl)-3H-imidazo[4,5-b]pyridin-3-yl)benzyl)piperazin-1-yl)pyrimidine-2-carbonitrile] | 5.00 to 6.22
7 | N#Cc1nccc(NC2CCN(Cc3ccc(-n4c(-c5cccnc5N)nc5ccc(-c6cccc(F)c6)nc54)cc3)CC2)n1 [Example 357, 4-((1-(4-(2-(2-Aminopyridin-3-yl)-5-(3-fluorophenyl)-3H-imidazo[4,5-b]pyridin-3-yl)benzyl)piperidin-4-yl)amino)pyrimidine-2-carbonitrile] | 7.22 to 7.82
8 | [2H]C([2H])([2H])Oc1ccc2nc(-c3cccnc3N)n(-c3ccc(CN4CCC(Nc5ccnc(C#N)n5)CC4)cc3)c2n1 [Example 427, 4-((1-(4-(2-(2-Aminopyridin-3-yl)-5-(methoxy-d3)-3H-imidazo[4,5-b]pyridin-3-yl)benzyl)piperidin-4-yl)amino)pyrimidine-2-carbonitrile] | > 7.82
9 | N#Cc1nccc(NC2CCN(Cc3ccc(-n4c(-c5cccnc5N)nc5ccc(-c6ccc(F)cn6)cc54)cc3)CC2)n1 [Example 602, 4-((1-(4-(2-(2-Aminopyridin-3-yl)-6-(5-fluoropyridin-2-yl)-1H-benzo[d]imidazol-1-yl)benzyl)piperidin-4-yl)amino)pyrimidine-2-carbonitrile] | > 7.82
10 | N#Cc1nccc(NC2CCC3(CC2)CN(Cc2ccc(-n4c(-c5cccnc5N)nc5ccc(-c6ccc(F)cc6)nc54)cc2)C3)n1 [Example 446, 4-((2-(4-(2-(2-Aminopyridin-3-yl)-5-(4-fluorophenyl)-3H-imidazo[4,5-b]pyridin-3-yl)benzyl)-2-azaspiro[3.5]nonan-7-yl)amino)pyrimidine-2-carbonitrile] | 7.22 to 7.82
11 | N#Cc1nccc(NC2CCN(Cc3ccc(-n4c(-c5cccnc5N)nc5ccc(O)nc54)cc3)CC2)n1 [Example 496, 4-((1-(4-(2-(2-Aminopyridin-3-yl)-5-hydroxy-3H-imidazo[4,5-b]pyridin-3-yl)benzyl)piperidin-4-yl)amino)pyrimidine-2-carbonitrile] | 7.22 to 7.82
12 | N#Cc1nccc(NC2CCN(Cc3ccc(-n4c(-c5cccnc5N)nc5ccc(-c6ccc(OC(F)F)nc6)nc54)cc3)CC2)n1 [Example 542, 4-((1-(4-(2-(2-Aminopyridin-3-yl)-5-(6-(difluoromethoxy)pyridin-3-yl)-3H-imidazo[4,5-b]pyridin-3-yl)benzyl)piperidin-4-yl)amino)pyrimidine-2-carbonitrile] | > 7.82
13 | Cn1cc(-c2ccc3nc(-c4cccnc4N)n(-c4ccc(CN5CCC(Nc6ccnc(C#N)n6)CC5)cc4)c3n2)cc1C#N [Example 481, 4-((1-(4-(2-(2-Aminopyridin-3-yl)-5-(5-cyano-1-methyl-1H-pyrrol-3-yl)-3H-imidazo[4,5-b]pyridin-3-yl)benzyl)piperidin-4-yl)amino)pyrimidine-2-carbonitrile] | > 7.82
14 | N#Cc1nccc(NC2CCN(Cc3ccc(-n4c(-c5cccnc5N)nc5cnccc54)cc3)CC2)n1 [Example 540, 4-((1-(4-(2-(2-Aminopyridin-3-yl)-1H-imidazo[4,5-c]pyridin-1-yl)benzyl)piperidin-4-yl)amino)pyrimidine-2-carbonitrile] | 6.22 to 7.22
15 | [2H]c1nn(C)nc1-c1ccc2nc(-c3cccnc3N)n(-c3ccc(CN4CCC(Nc5ccnc(C#N)n5)CC4)cc3)c2n1 [Example 616, 4-((1-(4-(2-(2-Aminopyridin-3-yl)-5-(2-methyl-2H-1,2,3-triazol-4-yl-5-d)-3H-imidazo[4,5-b]pyridin-3-yl)benzyl)piperidin-4-yl)amino)pyrimidine-2-carbonitrile] | > 7.82
16 | CC(C)Oc1ccc(-c2ccc3nc(-c4cccnc4N)n(-c4ccc(CN5CCC(Nc6ccnc(C#N)n6)CC5)cc4)c3n2)nc1 [Example 586, 4-((1-(4-(2-(2-Aminopyridin-3-yl)-5-(5-isopropoxypyridin-2-yl)-3H-imidazo[4,5-b]pyridin-3-yl)benzyl)piperidin-4-yl)amino)pyrimidine-2-carbonitrile] | > 7.82
17 | N#Cc1nccc(NC2CCN(Cc3ccc(-n4c(-c5cccnc5N)nc5ccc(Cl)nc54)cc3)CC2)n1 [Example 405, 4-((1-(4-(2-(2-Aminopyridin-3-yl)-5-chloro-3H-imidazo[4,5-b]pyridin-3-yl)benzyl)piperidin-4-yl)amino)pyrimidine-2-carbonitrile] | > 7.82
18 | CN(C(=O)c1ccnc(C#N)n1)C1CCN(Cc2ccc(-n3c(-c4cccnc4N)nc4ccc(-c5ccccc5)nc43)cc2)CC1 [Example 336, N-(1-(4-(2-(2-aminopyridin-3-yl)-5-phenyl-3H-imidazo[4,5-b]pyridin-3-yl)benzyl)piperidin-4-yl)-2-cyano-N-methylpyrimidine-4-carboxamide] | > 7.82

same assay, conditions: competitive tracer displacement in living cells, read-out: AKT1 E17K IC50

Row | SMILES | pIC50
19 | N#Cc1cnccc1C(=O)NC1CCN(Cc2ccc(-n3c(-c4cccnc4N)nc4cccnc43)cc2)CC1 [Example 36, N-(1-(4-(2-(2-Aminopyridin-3-yl)-3H-imidazo[4,5-b]pyridin-3-yl)benzyl)piperidin-4-yl)-3-cyanoisonicotinamide] | 5.00 to 6.22
20 | N#Cc1nccc(C(=O)NC2CCN(Cc3ccc(-n4c(-c5cccnc5N)nc5ccc(-c6ccccc6)nc54)cc3)CC2)n1 [Example 151, N-(1-(4-(2-(2-Aminopyridin-3-yl)-5-phenyl-3H-imidazo[4,5-b]pyridin-3-yl)benzyl)piperidin-4-yl)-2-cyanopyrimidine-4-carboxamide] | > 7.82
21 | N#Cc1ncc(NCc2ccc(-n3c(-c4cccnc4N)nc4cccnc43)cc2)cn1 [Example 95, 5-((4-(2-(2-Aminopyridin-3-yl)-3H-imidazo[4,5-b]pyridin-3-yl)benzyl)amino)pyrimidine-2-carbonitrile] | 5.00 to 6.22
22 | N#Cc1ccnc(N2CC3CCC(C2)N3Cc2ccc(-n3c(-c4cccnc4N)nc4ccc(-c5ccccc5)nc43)cc2)n1 [Example 212, 2-(8-(4-(2-(2-Aminopyridin-3-yl)-5-phenyl-3H-imidazo[4,5-b]pyridin-3-yl)benzyl)-3,8-diazabicyclo[3.2.1]octan-3-yl)pyrimidine-4-carbonitrile] | 6.22 to 7.22
23 | N#Cc1nccc(NC2CCN(Cc3ccc(-n4c(-c5cccnc5N)nc5ccc(C6CCC6)nc54)cc3)CC2)n1 [Example 262, 4-((1-(4-(2-(2-aminopyridin-3-yl)-5-cyclobutyl-3H-imidazo[4,5-b]pyridin-3-yl)benzyl)piperidin-4-yl)amino)pyrimidine-2-carbonitrile] | > 7.82
24 | N#Cc1nccc(C(=O)NC2C3CCC2CN(Cc2ccc(-n4c(-c5cccnc5N)nc5ccc(-c6ccccc6)nc54)cc2)C3)n1 (stereo not drawn) [Example 229, N-(3-(4-(2-(2-aminopyridin-3-yl)-5-phenyl-3H-imidazo[4,5-b]pyridin-3-yl)benzyl)-3-azabicyclo[3.2.1]octan-8-yl)-2-cyanopyrimidine-4-carboxamide] | 7.22 to 7.82
25 | N#Cc1cncc(C(=O)NC2CCN(Cc3ccc(-n4c(-c5cccnc5N)nc5ccc(-c6ccccc6)nc54)cc3)CC2)c1 [Example 57, N-(1-(4-(2-(2-Aminopyridin-3-yl)-5-phenyl-3H-imidazo[4,5-h]pyridin-3-yl)benzyl)piperidin-4-yl)-5-cyanonicotinamide] | 6.22 to 7.22
26 | N#Cc1ncnc(N2CCN(Cc3ccc(-n4c(-c5cccnc5N)nc5ccc(-c6ccccc6Cl)nc54)cc3)CC2)n1 [Example 304, 4-(4-(4-(2-(2-Aminopyridin-3-yl)-5-(2-chlorophenyl)-3H-imidazo[4,5-b]pyridin-3-yl)benzyl)piperazin-1-yl)-1,3,5-triazine-2-carbonitrile] | > 7.82
27 | N#Cc1ncnc(NC2CCCN(Cc3ccc(-n4c(-c5cccnc5N)nc5ccc(-c6ccccc6)nc54)cc3)CC2)n1 (stereo not drawn) [Example 278, 4-((1-(4-(2-(2-Aminopyridin-3-yl)-5-phenyl-3H-imidazo[4,5-b]pyridin-3-yl)benzyl)azepan-4-yl)amino)-1,3,5-triazine-2-carbonitrile] | 7.22 to 7.82
